Experimental data published in patent publication US8344010B2, “Fused imidazole derivatives as TRPV3 antagonist” (Glenmark Pharmaceuticals S.A., priority 2008, dated 2013).
pIC50: −log10 of the molar value.

Molecular target: T1, Human TRPV3 (Homo sapiens, UniProt Q8NET8)
T1 construct: expressed in transfected cells; host or cells: CHO cells (selected with G-418)
T1 sequence (Q8NET8 1-790): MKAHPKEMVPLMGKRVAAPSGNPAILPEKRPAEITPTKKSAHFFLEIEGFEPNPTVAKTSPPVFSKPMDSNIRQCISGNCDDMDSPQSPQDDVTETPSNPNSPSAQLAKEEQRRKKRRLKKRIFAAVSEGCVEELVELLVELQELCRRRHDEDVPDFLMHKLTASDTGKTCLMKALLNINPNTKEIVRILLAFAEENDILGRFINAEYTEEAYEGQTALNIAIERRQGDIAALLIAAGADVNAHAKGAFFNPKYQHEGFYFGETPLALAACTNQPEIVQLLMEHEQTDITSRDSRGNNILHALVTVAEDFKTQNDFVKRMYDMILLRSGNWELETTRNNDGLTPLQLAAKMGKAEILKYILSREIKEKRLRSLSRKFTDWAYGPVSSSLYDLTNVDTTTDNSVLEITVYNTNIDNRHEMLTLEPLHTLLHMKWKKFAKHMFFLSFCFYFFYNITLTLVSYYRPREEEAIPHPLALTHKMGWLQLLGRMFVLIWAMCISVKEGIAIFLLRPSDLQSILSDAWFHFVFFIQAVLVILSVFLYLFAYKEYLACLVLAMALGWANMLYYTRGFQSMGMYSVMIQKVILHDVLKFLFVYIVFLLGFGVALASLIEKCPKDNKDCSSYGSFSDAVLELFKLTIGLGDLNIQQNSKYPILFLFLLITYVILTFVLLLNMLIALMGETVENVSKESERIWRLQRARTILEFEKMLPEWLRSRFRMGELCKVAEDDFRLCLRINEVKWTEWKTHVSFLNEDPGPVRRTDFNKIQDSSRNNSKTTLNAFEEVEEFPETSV
Test: 45Calcium uptake assay: inhibition of 2-APB induced cellular uptake of radioactive calcium
Type: cell-based
Conditions: human TRPV3 expressing CHO cells, 2-APB 500 μM; for inhibition at 1 µM: 1 μM test compound, read-out: Percentage Inhibition (1 μM); for inhibition at 10 µM: 10 μM test compound, read-out: Percentage Inhibition (10 μM)
Summary of the method: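 CHO cells expressing human TRPV3 were preincubated with compound for 10 min (0.5% DMSO final), then given 500 μM 2-APB plus 5 μCi/ml 45Ca2+ for 4 min. Lysate radioactivity was counted by scintillation; responses as % of maximal without antagonist, with IC50 by nonlinear regression.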

SMILES	inhibition at 1 µM	inhibition at 10 µM	pIC50 (class symbol)	pIC50 (numeric value)
COc1cccc(/C=C/c2nc3cc(F)c(Cl)cc3n2-c2ccc(C#N)cn2)c1OC1CCCC1 [Example 70, 6-{6-Chloro-2-[(E)-2-(2-[cyclopentyloxy]-3-methoxyphenyl)vinyl]-5-fluoro-1H-benzimidazol-1-yl}nicotinonitrile]	96.2%	98.1%	7.00 to 7.30	–
COc1cccc(/C=C/c2nc3cc(Cl)c(C(F)(F)F)cc3n2-c2ccc(C#N)cn2)c1OC1CCCC1 [Example 71, 6-{5-Chloro-2-[(E)-2-(2-cyclopentyloxy-3-methoxyphenyl)vinyl]-6-(trifluoromethyl)-1H-benzimidazol-1-yl}nicotinonitrile]	53.7%	79.4%	–	–
COc1cccc(/C=C/c2nc3cc(Cl)c(Cl)cc3n2-c2ccc(C#N)cn2)c1OC1CCCC1 [Example 72, 6-{5,6-Dichloro-2-[(E)-2-(2-cyclopentyloxy-3-methoxyphenyl)vinyl]-1H-benzimidazol-1-yl}nicotinonitrile]	90.8%	95.5%	6.30 to 7.00	–
CCOC(=O)c1ccc(-n2c(/C=C/c3cccc(OC)c3OC3CCCC3)nc3cc(F)c(F)cc32)nn1 [Example 73, Ethyl 6-{2-[(E)-2-(2-cyclopentyloxy-3-methoxyphenyl)vinyl]-5,6-difluoro-1H-benzimidazol-1-yl}pyridazine-3-carboxylate]	53.5%	75.5%	–	–
COc1cccc(/C=C/c2nc3cc(F)c(F)cc3n2-c2ccc(C(=O)O)nn2)c1OC1CCCC1 [Example 74, 6-{2-[(E)-2-(2-Cyclopentyloxy-3-methoxyphenyl)vinyl]-5,6-difluoro-1H-benzimidazol-1-yl}pyridazine-3-carboxylic acid]	1.7%	1.51%	–	–
COc1cccc(/C=C/c2nc3cc(F)c(F)cc3n2-c2ccc(C(N)=O)nn2)c1OC1CCCC1 [Example 75, 6-{2-[(E)-2-(2-Cyclopentyloxy-3-methoxyphenyl)vinyl]-5,6-difluoro-1H-benzimidazol-1-yl}pyridazine-3-carboxamide]	34.4%	90.7%	–	–
COc1cccc(/C=C/c2nc3cc(F)c(F)cc3n2-c2ccc(C#N)nn2)c1OC1CCCC1 [Example 76, 6-{2-[(E)-2-(2-Cyclopentyloxy-3-methoxyphenyl)vinyl]-5,6-difluoro-1H-benzimidazol-1-yl}pyridazine-3-carbonitrile]	96.3%	97%	6.30 to 7.00	–
CCC(CC)Oc1c(/C=C/c2nc3cc(F)c(F)cc3n2-c2ccc(C#N)cn2)cccc1OC [Example 77, 6-{2-[(E)-2-(2-(1-ethylpropoxy)-3-methoxyphenyl)vinyl]-5,6-difluoro-1H-benzimidazol-1-yl}nicotinonitrile]	93.2%	98.7%	7.00 to 7.30	–
CCCCCOc1c(/C=C/c2nc3cc(F)cc(F)c3n2-c2ccc(C#N)cn2)cccc1OC [Example 78, 6-{5,7-Difluoro-2-[(E)-2-(2-pentyloxy-3-methoxyphenyl)vinyl]-1H-benzimidazol-1-yl}nicotinonitrile]	92.7%	96.8%	7.00 to 7.30	–
COc1cccc(/C=C/c2nc3cc(F)cc(F)c3n2-c2ccc(C#N)cn2)c1OC1CCCC1 [Example 79, 6-{5,7-Difluoro-2-[(E)-2-(2-[cyclopentyloxy]-3-methoxyphenyl)vinyl]-1H-benzimidazol-1-yl}nicotinonitrile]	93.7%	96.8%	7.00 to 7.30	7.16
COc1cccc(/C=C/c2nc3c(F)cc(F)cc3n2-c2ccc(C#N)cn2)c1OC1CCCC1 [Example 80, 6-{4,6-Difluoro-2-[(E)-2-(2-[cyclopentyloxy]-3-methoxyphenyl)vinyl]-1H-benzimidazol-1-yl}nicotinonitrile]	97.6%	98.8%	7.00 to 7.30	–
